Experimental data reported in US11433055B2, “Chromane monobactam compounds for the treatment of bacterial infections” (priority 2017, dated 2022).
Where a name gives a salt, the structure may show the parent alone.

How the values were obtained:
Type in all cases: cell-based
Details in all cases: lowest concentration inhibiting 95% of bacterial growth; in the presence of β lactamase inhibitor (BLi, Relebactam); 22 hours, 35±2° C., OD600
[1] = system: Klebsiella pneumoniae expressing KPC-1 (CL6569)
Procedure: (§1) Antibiotic Activity: Determination of Growth Inhibitory Concentration
(§2) The concentrations of compounds required to inhibit the growth of various strains of bacteria were determined in an assay that assessed bacterial growth by measuring optical density at 600 nm (OD600). The bacterial strains tested included the clinical strains Escherichia coli expressing NDM-1 (CLB30016), Klebsiella pneumoniae expressing KPC-1 (CL6569), Acinetobacter baumannii expressing TEM-1, AmpC, and Oxa-24/40 (CL6188) and Pseudomonas aeruginosa expressing AmpC (CL5701). All compounds were tested in the presence of a β lactamase inhibitor (BLi, Relebactam) in 384-well microplates. The clinical strains were stored as frozen single use stocks, thawed and diluted into 1.1× cation-adjusted Mueller-Hinton II broth to achieve approximately 2×10^5 CFU/mL. Test compounds were dissolved in DMSO and diluted 1:50 in the assay, resulting in a final concentration range of 100 μM to 0.098 μM. On the day of the assay, 1 μL of test compound was added to the plate followed by 4 μL of 50 μg/mL BLi in MOPS buffer and 45 μL of diluted bacteria. Plates were centrifuged at 1000 rpm for 30 seconds, shaken at approximately 800 rpm for 1 minute, and incubated at 35±2° C. for 22 hours. The concentration of BLi used in the assay was […]. At the end of the incubation, absorbance at 600 nm was determined using a spectrophotometer. Inhibition was quantitated by identifying the lowest concentration of test compound that was required to inhibit 95% of the growth of the bacteria. The results for Examples 1-39 are reported in Table I, expressed as the concentration of compound that inhibited 95% of bacterial growth (Minimum Inhibitory Threshold Concentration; MITC95).

[2] = system: Pseudomonas aeruginosa expressing AmpC (CL5701)
Procedure: as §1, §2

[3] = system: Acinetobacter baumannii expressing TEM-1, AmpC, and Oxa-24/40 (CL6188)
Procedure: as §1, §2

[4] = system: Escherichia coli expressing NDM-1 (CLB30016)
Procedure: as §1, §2

CC1(C)[C@H](NC(=O)/C(=N\O[C@](C)(C(=O)O)C2CCc3cc(-c4cn(C[C@@H](O)CN)[n+](CCCN)c4)ccc3O2)c2csc(N)n2)C(=O)N1OS(=O)(=O)[O-] (mixture of isomers) [Example 5, (3 S)-3-((Z)-2-(((1 S)-1-(6-(1-((S)-3-amino-2-hydroxypropyl)-2-(3-aminopropyl)-1H-pyrazol-2-ium-4-yl)chroman-2-yl)-1-carboxyethoxy)imino)-2-(2-aminothiazol-4-yl)acetamido)-2,2-dimethyl-4-oxoazetidin-1-yl Sulfate]
KP_CL6569 MITC95 [1]: 6.25 µM | PA_CL5701 MITC95 [2]: 50 µM | AB_CL6188 MITC95 [3]: 25 µM | EC_CLB30016 MITC95 [4]: 100 µM

CC1(C)[C@H](NC(=O)/C(=N\O[C@](C)(C(=O)O)[C@H]2CCc3cc(C4CNC(NCCN)=N4)ccc3O2)c2csc(N)n2)C(=O)N1OS(=O)(=O)O (single isomer, unassigned) [Example 25]
KP_CL6569 MITC95 [1]: 0.3906 µM | PA_CL5701 MITC95 [2]: 3.125 µM | AB_CL6188 MITC95 [3]: 50 µM | EC_CLB30016 MITC95 [4]: 6.25 µM

CC1(C)[C@H](NC(=O)/C(=N\O[C@](C)(C(=O)O)[C@H]2CCc3cc(C4CNC(NCCN)=N4)ccc3O2)c2csc(N)n2)C(=O)N1OS(=O)(=O)O (single isomer, unassigned) [Example 26]
KP_CL6569 MITC95 [1]: 1.563 µM | PA_CL5701 MITC95 [2]: 50 µM | AB_CL6188 MITC95 [3]: 12.5 µM | EC_CLB30016 MITC95 [4]: 100 µM

C[n+]1cc(-c2ccc3c(c2)OCC(CO/N=C(\C(=O)N[C@@H]2C(=O)N(OS(=O)(=O)[O-])C2(C)C)c2csc(N)n2)C3)ccc1NCCN.O=C(O)C(F)(F)F (single isomer, unassigned) [Example 37A]
KP_CL6569 MITC95 [1]: 0.78 µM | PA_CL5701 MITC95 [2]: 3.13 µM | AB_CL6188 MITC95 [3]: 12.5 µM | EC_CLB30016 MITC95 [4]: 12.5 µM

C[n+]1cc(-c2ccc3c(c2)OCC(CO/N=C(\C(=O)N[C@@H]2C(=O)N(OS(=O)(=O)[O-])C2(C)C)c2csc(N)n2)C3)ccc1NCCN.O=C(O)C(F)(F)F (single isomer, unassigned) [Example 37B]
KP_CL6569 MITC95 [1]: 6.25 µM | PA_CL5701 MITC95 [2]: 25 µM | AB_CL6188 MITC95 [3]: 50 µM | EC_CLB30016 MITC95 [4]: 100 µM

CC1(C)[C@H](NC(=O)/C(=N\O[C@](C)(C(=O)O)[C@H]2CCc3cc(-c4cn(C[C@@H](O)CN)[n+](CC5CNC5)c4)ccc3O2)c2csc(N)n2)C(=O)N1OS(=O)(=O)[O-] [Example 4, (S)-3-((Z)-2-(((S)-1-((R)-6-(1-((S)-3-Amino-2-hydroxypropyl)-2-(azetidin-3-ylmethyl)-1H-pyrazol-2-ium-4-yl)chroman-2-yl)-1-carboxyethoxy)imino)-2-(2-aminothiazol-4-yl)acetamido)-2,2-dimethyl-4-oxoazetidin-1-yl Sulfate]
KP_CL6569 MITC95 [1]: 1.281 µM | PA_CL5701 MITC95 [2]: 25 µM | AB_CL6188 MITC95 [3]: 6.25 µM | EC_CLB30016 MITC95 [4]: 12.5 µM

C[n+]1cc(-c2ccc3c(c2)CC[C@H]([C@](C)(O/N=C(\C(=O)N[C@@H]2C(=O)N(OS(=O)(=O)[O-])C2(C)C)c2csc(N)n2)C(=O)O)O3)cn1CC1(N)CNC1 [Example 6, (S)-3-((Z)-2-(((S)-1-((R)-6-(1-((3-Aminoazetidin-3-yl)methyl)-2-methyl-1H-pyrazol-2-ium-4-yl)chroman-2-yl)-1-carboxyethoxy)imino)-2-(2-aminothiazol-4-yl)acetamido)-2,2-dimethyl-4-oxoazetidin-1-yl Sulfate]
KP_CL6569 MITC95 [1]: 12.5 µM | PA_CL5701 MITC95 [2]: 100 µM | AB_CL6188 MITC95 [3]: 100 µM | EC_CLB30016 MITC95 [4]: 100 µM

C[n+]1cc(-c2ccc3c(c2)CC[C@H]([C@](C)(O/N=C(\C(=O)N[C@@H]2C(=O)N(OS(=O)(=O)[O-])C2(C)C)c2csc(N)n2)C(=O)O)O3)cn1C[C@H](O)CN [Example 7, (S)-3-((Z)-2-(((S)-1-((R)-6-(1-((R)-3-amino-2-hydroxypropyl)-2-methyl-1H-pyrazol-2-ium-4-yl)chroman-2-yl)-1-carboxyethoxy)imino)-2-(2-aminothiazol-4-yl)acetamido)-2,2-dimethyl-4-oxoazetidin-1-yl sulfate]
KP_CL6569 MITC95 [1]: 1.563 µM | PA_CL5701 MITC95 [2]: 12.5 µM | AB_CL6188 MITC95 [3]: 25 µM | EC_CLB30016 MITC95 [4]: 25 µM

C[n+]1cc(-c2ccc3c(c2)CC[C@H]([C@](C)(O/N=C(\C(=O)N[C@@H]2C(=O)N(OS(=O)(=O)[O-])C2(C)C)c2csc(N)n2)C(=O)O)O3)cn1C[C@@H](O)CN [Example 8, (S)-3-((Z)-2-(((S)-1-((R)-6-(1-((S)-3-amino-2-hydroxypropyl)-2-methyl-1H-pyrazol-2-ium-4-yl)chroman-2-yl)-1-carboxyethoxy)imino)-2-(2-aminothiazol-4-yl)acetamido)-2,2-dimethyl-4-oxoazetidin-1-yl sulfate]
KP_CL6569 MITC95 [1]: 3.125 µM | PA_CL5701 MITC95 [2]: 25 µM | AB_CL6188 MITC95 [3]: 100 µM | EC_CLB30016 MITC95 [4]: 100 µM

CC1(C)[C@H](NC(=O)/C(=N\O[C@](C)(C(=O)O)[C@H]2CCc3cc(-c4cn(CCCN)c(=N)n4C[C@H](O)CO)ccc3O2)c2csc(N)n2)C(=O)N1OS(=O)(=O)O [Example 9, (S)-3-((Z)-2-(((S)-1-((R)-6-(1-(3-aminopropyl)-3-((S)-2,3-dihydroxypropyl)-2-imino-2,3-dihydro-1H-imidazol-4-yl)chroman-2-yl)-1-carboxyethoxy)imino)-2-(2-aminothiazol-4-yl)acetamido)-2,2-dimethyl-4-oxoazetidin-1-yl sulfate]
KP_CL6569 MITC95 [1]: 0.3906 µM | PA_CL5701 MITC95 [2]: 6.25 µM | AB_CL6188 MITC95 [3]: 12.5 µM | EC_CLB30016 MITC95 [4]: 12.5 µM

C[n+]1cc(-c2ccc3c(c2)CC[C@@H](CO/N=C(\C(=O)N[C@@H]2C(=O)N(OS(=O)(=O)[O-])C2(C)C)c2csc(N)n2)O3)cn1CCCN [Example 10, (S)-3-((Z)-2-((((S)-6-(1-(3-aminopropyl)-2-methyl-1H-pyrazol-2-ium-4-yl)chroman-2-yl)methoxy)imino)-2-(2-aminothiazol-4-yl)acetamido)-2,2-dimethyl-4-oxoazetidin-1-yl sulfate]
KP_CL6569 MITC95 [1]: 0.3906 µM | PA_CL5701 MITC95 [2]: 6.25 µM | AB_CL6188 MITC95 [3]: 12.5 µM | EC_CLB30016 MITC95 [4]: 6.25 µM

C[n+]1cc(-c2ccc3c(c2)CC[C@H](CO/N=C(\C(=O)N[C@@H]2C(=O)N(OS(=O)(=O)[O-])C2(C)C)c2csc(N)n2)O3)cn1CCCN [Example 11, (S)-3-((Z)-2-((((R)-6-(1-(3-aminopropyl)-2-methyl-1H-pyrazol-2-ium-4-yl)chroman-2-yl)methoxy)imino)-2-(2-aminothiazol-4-yl)acetamido)-2,2-dimethyl-4-oxoazetidin-1-yl sulfate]
KP_CL6569 MITC95 [1]: 0.7813 µM | PA_CL5701 MITC95 [2]: 3.125 µM | AB_CL6188 MITC95 [3]: 3.125 µM | EC_CLB30016 MITC95 [4]: 6.25 µM

CC1(C)[C@H](NC(=O)/C(=N\OCC2CCc3cc(C(=N)NCCN)ccc3O2)c2csc(N)n2)C(=O)N1OS(=O)(=O)O (stereo partly drawn) [Example 13, (3S)-3-((Z)-2-(((6-(N-(2-aminoethyl)carbamimidoyl)chroman-2-yl)methoxy)imino)-2-(2-aminothiazol-4-yl)acetamido)-2,2-dimethyl-4-oxoazetidin-1-yl hydrogen sulfate]
KP_CL6569 MITC95 [1]: 0.7813 µM | PA_CL5701 MITC95 [2]: 12.5 µM | AB_CL6188 MITC95 [3]: 25 µM | EC_CLB30016 MITC95 [4]: 12.5 µM

CC1(C)[C@H](NC(=O)/C(=N\O[C@](C)(C(=O)O)[C@H]2CCc3cc(-c4ccc(NCCN)[n+](CC5CNC5)c4)ccc3O2)c2csc(N)n2)C(=O)N1OS(=O)(=O)[O-].O=CO [Example 14, (S)-3-((Z)-2-(((S)-1-((R)-6-(6-((2-aminoethyl)amino)-1-(azetidin-1-ium-3-ylmethyl)pyridin-1-ium-3-yl)chroman-2-yl)-1-carboxyethoxy)imino)-2-(2-aminothiazol-4-yl)acetamido)-2,2-dimethyl-4-oxoazetidin-1-yl Sulfate Formate]
KP_CL6569 MITC95 [1]: 0.7813 µM | PA_CL5701 MITC95 [2]: 12.5 µM | AB_CL6188 MITC95 [3]: 50 µM | EC_CLB30016 MITC95 [4]: 12.5 µM
